Test results published in PubChem BioAssay (NCI).
Where “and” joins values, the source holds several entries; their conditions need not be identical. Equal values may be shown once.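 All cell lines were grown in 96-well plates and treated with compound for 48 hours. Here, GI50 denotes the concentration required for 50% inhibition of growth. TGI marks complete inhibition of growth.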

Tests used:
Assay in all cases: NCI tumour cell line growth inhibition, 48 h
786-0 renal = test system: 786-0 renal
HOP-62 NSCLC = test system: HOP-62 NSCLC
HCT-116 colon = test system: HCT-116 colon
SN12C renal = test system: SN12C renal
PC-3 prostate = test system: PC-3 prostate
M14 melanoma = test system: M14 melanoma
UACC-257 melanoma = test system: UACC-257 melanoma
EKVX NSCLC = test system: EKVX NSCLC
NCI/ADR-RES ovarian = test system: NCI/ADR-RES ovarian
SF-539 CNS = test system: SF-539 CNS

SMILES | TGI (786-0 renal) | TGI (HOP-62 NSCLC) | TGI (HCT-116 colon) | TGI (SN12C renal) | TGI (PC-3 prostate) | TGI (M14 melanoma) [µM] | TGI (UACC-257 melanoma) | TGI (EKVX NSCLC) | TGI (NCI/ADR-RES ovarian) | TGI (SF-539 CNS) | GI50 (786-0 renal) | GI50 (HCT-116 colon) | GI50 (SN12C renal) | GI50 (PC-3 prostate) | GI50 (M14 melanoma) | GI50 (NCI/ADR-RES ovarian) | GI50 (SF-539 CNS) | GI50 (HOP-62 NSCLC) [µM] | GI50 (UACC-257 melanoma) [µM] | GI50 (EKVX NSCLC) [µM]
O=C1c2ccccc2C(=O)N1CCCSc1ccccc1 | > 100 µM | > 100 µM | > 100 µM | > 100 µM | > 100 µM | > 100 | > 100 µM | > 100 µM | > 100 µM | > 100 µM | – | – | – | – | – | – | – | – | – | –
CC(=O)N[C@H]1C=C[C@@H]2/C=C(C)/C=C/[C@@H](C)[C@H]([C@H](C)[C@H](O)[C@@H](C)NC(C)=O)OC(=O)/C=C/C=C(C)\C=C\[C@]2(C)C1 | 4.65 µM and > 45 µM | 4.65 µM and > 45 µM | 4.65 µM and > 45 µM | 4.65 µM and > 45 µM | 4.65 µM and > 45 µM | – | 4.65 µM and 16.5 µM | 4.65 µM and > 45 µM | 4.65 µM and > 45 µM | 4.65 µM and 24.6 µM | 0.0242 µM and 0.0045 µM | 0.00564 µM and 0.0045 µM | 0.0212 µM and 0.00535 µM | 0.0202 µM and 0.0045 µM | 0.00734 µM and 0.0045 µM | 0.213 µM and 0.0397 µM | 0.0107 µM and 0.0045 µM | – | – | –
ClCc1cccc(Cn2cnc3c(NC45CC6CC(CC(C6)C4)C5)ncnc32)c1 | 25.8 µM | 37.5 µM | 30.4 µM | 50.9 µM | 40.2 µM | 27.6 | 37.4 µM | 40.7 µM | 41.9 µM | 32.4 µM | 3.43 µM | 12.6 µM | 21.2 µM | 19 µM | 12.1 µM | 16.2 µM | 16.9 µM | 20.5 | 16 | 18.6
Cn1ccnc1CC(C)(O)c1ccccc1 (stereo unspecified) | > 100 µM | > 100 µM | > 100 µM | > 100 µM | > 100 µM | > 100 | > 100 µM | > 100 µM | > 100 µM | > 100 µM | – | – | – | – | – | – | – | – | – | –
COc1ccc([N+](=O)[O-])c2c(NCCCN(C)C)c3ccccc3nc12 | 0.504 µM | 0.399 µM | 0.978 µM | 1.43 µM | 0.372 µM | 0.572 | 0.531 µM | 0.557 µM | 23.5 µM | 1.49 µM | – | – | – | – | – | – | – | – | – | –
Cc1nc2sc(C(=O)Nc3cccc(Cl)c3C)c(N)c2cc1C(=O)/C=C/c1ccccc1 | 0.907 µM | 1.73 µM | 0.707 µM | 1.83 µM | 1.54 µM | 1.35 | 12.6 µM | 5.69 µM | 0.656 µM | 1.43 µM | 0.232 µM | 0.186 µM | 0.532 µM | 0.33 µM | 0.239 µM | 0.176 µM | 0.595 µM | 0.339 | 1.5 | 1.12
COc1cc(Nc2nccc(Nc3ccc4c(C)[nH]nc4c3)n2)cc(OC)c1OC | 9.7 µM | 8.34 µM | 6.42 µM | 20.8 µM | > 20.5 µM | 5.37 | 5.96 µM | 9.19 µM | 13.7 µM | 6.11 µM | 2.93 µM | 2.26 µM | 2.12 µM | 2.33 µM | 1.35 µM | 4.39 µM | 1.72 µM | 1.08 | 1.22 | 1.87
CCOC(=O)Nc1nc2ccc(Cn3cccc3)cc2[nH]1 | > 100 µM | > 67.1 µM | > 100 µM | > 100 µM | > 38.2 µM | > 100 | 26.2 µM | > 100 µM | 21.2 µM | 7.09 µM | – | – | – | – | – | – | – | – | – | –
NOCC(=O)O | > 100 µM | > 100 µM | > 100 µM | > 100 µM | > 100 µM | > 100 | > 100 µM | > 100 µM | > 100 µM | > 100 µM | > 100 µM | 66.8 µM | > 100 µM | > 100 µM | 82.8 µM | > 100 µM | > 100 µM | > 100 | > 100 | > 100
O=C(/C=C/c1ccc(F)cc1)c1ccc(Cl)cc1Cl | > 100 µM | > 100 µM | 31.3 µM | > 100 µM | 96.8 µM | > 100 | > 100 µM | > 100 µM | > 100 µM | > 100 µM | 45.2 µM | 16.6 µM | 61.8 µM | 31.3 µM | > 100 µM | 38.4 µM | > 100 µM | > 100 | 68.3 | 89.9
COc1ccc(CN(C)c2ccc(CO)c(Cl)c2)cc1 | > 66.4 µM | > 100 µM | 14.2 µM | > 100 µM | > 100 µM | > 95.5 | 1.22 µM | > 91.6 µM | 55.3 µM | > 100 µM | 13.7 µM | 0.368 µM | 21.5 µM | 20.7 µM | 22.7 µM | 15.9 µM | 47.7 µM | 7.58 | 0.318 | 22
O=c1c2c(nc3n1CCS3)[nH]c1ccccc12 | > 100 µM | > 100 µM | > 100 µM | > 100 µM | > 100 µM | > 100 | > 100 µM | > 100 µM | > 100 µM | > 100 µM | > 100 µM | > 100 µM | > 100 µM | > 100 µM | > 100 µM | > 100 µM | > 100 µM | > 100 | > 100 | > 100
